Experimental findings from patent publication US20230322770A1, “SUBSTITUTED HETEROARYL COMPOUNDS USEFUL AS INHIBITORS OF TLR9” (BRISTOL-MYERS SQUIBB COMPANY, priority 2020, published 2023) are described below.

Assay type in all cases: cell-based
Experiment [1] concerns the target T1, human TLR9 (Homo sapiens, UniProt Q9NR96).
T1 construct: host or cells: HEK-Blue cells (HEK293-derived reporter line)
T1 sequence (Q9NR96 26-1032): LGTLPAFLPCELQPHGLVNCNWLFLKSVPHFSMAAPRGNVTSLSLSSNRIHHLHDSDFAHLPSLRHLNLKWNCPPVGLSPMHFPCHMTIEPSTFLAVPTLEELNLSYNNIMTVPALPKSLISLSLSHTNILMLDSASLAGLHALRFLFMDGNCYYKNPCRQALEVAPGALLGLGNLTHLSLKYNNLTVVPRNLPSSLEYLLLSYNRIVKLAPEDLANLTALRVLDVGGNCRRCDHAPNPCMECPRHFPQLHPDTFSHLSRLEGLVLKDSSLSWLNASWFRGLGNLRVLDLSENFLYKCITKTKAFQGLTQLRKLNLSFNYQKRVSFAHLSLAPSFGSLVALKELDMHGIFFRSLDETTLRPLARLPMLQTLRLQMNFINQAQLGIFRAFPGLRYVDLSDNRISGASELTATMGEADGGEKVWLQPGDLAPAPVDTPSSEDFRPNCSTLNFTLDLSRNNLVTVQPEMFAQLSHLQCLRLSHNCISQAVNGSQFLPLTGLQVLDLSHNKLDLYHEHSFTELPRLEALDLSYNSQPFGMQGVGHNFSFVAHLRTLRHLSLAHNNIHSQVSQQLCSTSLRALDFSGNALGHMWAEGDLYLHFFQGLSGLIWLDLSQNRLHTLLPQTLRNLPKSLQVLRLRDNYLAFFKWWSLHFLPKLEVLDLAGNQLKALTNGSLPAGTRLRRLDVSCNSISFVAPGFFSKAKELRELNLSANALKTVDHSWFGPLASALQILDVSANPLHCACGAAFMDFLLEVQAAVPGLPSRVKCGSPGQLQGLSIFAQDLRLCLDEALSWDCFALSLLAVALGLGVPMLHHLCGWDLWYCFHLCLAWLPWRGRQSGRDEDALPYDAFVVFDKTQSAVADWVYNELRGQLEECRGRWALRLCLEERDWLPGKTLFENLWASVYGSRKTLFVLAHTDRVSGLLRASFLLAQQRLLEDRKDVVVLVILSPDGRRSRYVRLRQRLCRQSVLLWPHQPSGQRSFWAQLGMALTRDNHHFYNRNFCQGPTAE
Briefly: TLR9 inhibition reporter assay (HEK-Blue cells, SEAP reporter). Particulars: HEK-Blue cells overexpressing human TLR9; stimulated with ODN2006 5 nM; SEAP after 22 hour incubation. In short, it runs like this: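 Compound treatment: 30 min, RT, 0.05 nM–50 μM final. Agonist: TLR7 gardiquimod 7.5 μM; TLR8 R848 15.9 μM; TLR9 ODN2006 5 nM. Incubation 22 h, 37 °C, 5% CO2. Readout SEAP, HEK-Blue Detection.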

Experiment [2] concerns the target T2, human TLR7 (Homo sapiens, UniProt Q9NYK1).
T2 construct: host or cells: HEK-Blue cells (HEK293-derived reporter line)
T2 sequence (Q9NYK1 27-1049): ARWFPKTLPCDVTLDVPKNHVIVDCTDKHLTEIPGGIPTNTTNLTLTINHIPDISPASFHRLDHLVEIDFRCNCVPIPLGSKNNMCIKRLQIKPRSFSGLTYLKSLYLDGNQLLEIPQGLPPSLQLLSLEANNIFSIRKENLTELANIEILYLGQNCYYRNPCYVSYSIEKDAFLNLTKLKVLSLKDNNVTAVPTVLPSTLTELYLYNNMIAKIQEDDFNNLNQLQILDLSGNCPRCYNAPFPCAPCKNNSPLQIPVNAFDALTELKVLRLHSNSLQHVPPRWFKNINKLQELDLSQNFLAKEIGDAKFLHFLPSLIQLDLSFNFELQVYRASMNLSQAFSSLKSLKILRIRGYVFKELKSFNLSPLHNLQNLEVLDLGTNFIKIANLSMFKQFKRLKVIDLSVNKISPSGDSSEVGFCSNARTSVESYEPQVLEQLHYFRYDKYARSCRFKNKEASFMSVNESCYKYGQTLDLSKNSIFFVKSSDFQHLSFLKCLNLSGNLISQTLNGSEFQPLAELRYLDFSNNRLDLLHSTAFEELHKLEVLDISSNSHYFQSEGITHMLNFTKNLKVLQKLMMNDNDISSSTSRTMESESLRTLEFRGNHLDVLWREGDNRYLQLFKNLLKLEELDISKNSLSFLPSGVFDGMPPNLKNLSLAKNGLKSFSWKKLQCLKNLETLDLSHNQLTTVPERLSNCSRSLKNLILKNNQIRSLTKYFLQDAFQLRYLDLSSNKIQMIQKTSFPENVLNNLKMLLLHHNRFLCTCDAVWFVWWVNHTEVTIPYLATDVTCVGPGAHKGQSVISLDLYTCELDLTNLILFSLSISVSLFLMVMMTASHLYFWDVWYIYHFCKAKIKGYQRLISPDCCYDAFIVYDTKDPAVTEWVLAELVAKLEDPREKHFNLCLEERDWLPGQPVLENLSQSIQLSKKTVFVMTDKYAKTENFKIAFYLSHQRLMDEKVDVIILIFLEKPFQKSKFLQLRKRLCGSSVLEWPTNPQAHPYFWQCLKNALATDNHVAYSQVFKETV
The experiment in a line: TLR7 inhibition reporter assay (HEK-Blue cells, SEAP reporter). Particulars: HEK-Blue cells overexpressing human TLR7; stimulated with gardiquimod 7.5 μM; SEAP after 22 hour incubation. Here is the method:
(§1) TLR7/8/9 Inhibition Reporter Assays
(§2) HEK-Blue™-cells (Invivogen) overexpressing human TLR7, TLR8 or TLR9 receptors were used for screening inhibitors of these receptors using an inducible SEAP (secreted embryonic alkaline phosphatase) reporter gene under the control of the IFN-β minimal promoter fused to five NF-κB and AP-1-binding sites. Briefly, cells are seeded into Greiner 384 well plates (15000 cells per well for TLR7, 20,000 for TLR8 and 25,000 for TLR9) and then treated with test compounds in DMSO to yield a final dose response concentration range of 0.05 nM-50 μM. After a 30 minute compound pre-treatment at room temperature, the cells are then stimulated with a TLR7 ligand (gardiquimod at a final concentration of 7.5 μM), TLR8 ligand (R848 at a final concentration of 15.9 μM) or TLR9 ligand (ODN2006 at a final concentration of 5 nM) to activate NF-κB and AP-1 which induce the production of SEAP. After a 22 hour incubation at 37° C., 5% CO2, SEAP levels are determined with the addition of HEK-Blue™ Detection reagent (Invivogen), a cell culture medium that allows for detection of SEAP, according to manufacturer's specifications. The percent inhibition is determined as the % reduction in the HEK-Blue signal present in wells treated with agonist plus DMSO alone compared to wells treated with a known inhibitor.
A general note: Reporter assays use an easily measured gene product as a stand-in for the process of interest.

In experiment [3] the target is T3, human TLR8 (Homo sapiens, UniProt Q9NR97).
T3 construct: host or cells: HEK-Blue cells (HEK293-derived reporter line)
T3 sequence (Q9NR97 27-1041): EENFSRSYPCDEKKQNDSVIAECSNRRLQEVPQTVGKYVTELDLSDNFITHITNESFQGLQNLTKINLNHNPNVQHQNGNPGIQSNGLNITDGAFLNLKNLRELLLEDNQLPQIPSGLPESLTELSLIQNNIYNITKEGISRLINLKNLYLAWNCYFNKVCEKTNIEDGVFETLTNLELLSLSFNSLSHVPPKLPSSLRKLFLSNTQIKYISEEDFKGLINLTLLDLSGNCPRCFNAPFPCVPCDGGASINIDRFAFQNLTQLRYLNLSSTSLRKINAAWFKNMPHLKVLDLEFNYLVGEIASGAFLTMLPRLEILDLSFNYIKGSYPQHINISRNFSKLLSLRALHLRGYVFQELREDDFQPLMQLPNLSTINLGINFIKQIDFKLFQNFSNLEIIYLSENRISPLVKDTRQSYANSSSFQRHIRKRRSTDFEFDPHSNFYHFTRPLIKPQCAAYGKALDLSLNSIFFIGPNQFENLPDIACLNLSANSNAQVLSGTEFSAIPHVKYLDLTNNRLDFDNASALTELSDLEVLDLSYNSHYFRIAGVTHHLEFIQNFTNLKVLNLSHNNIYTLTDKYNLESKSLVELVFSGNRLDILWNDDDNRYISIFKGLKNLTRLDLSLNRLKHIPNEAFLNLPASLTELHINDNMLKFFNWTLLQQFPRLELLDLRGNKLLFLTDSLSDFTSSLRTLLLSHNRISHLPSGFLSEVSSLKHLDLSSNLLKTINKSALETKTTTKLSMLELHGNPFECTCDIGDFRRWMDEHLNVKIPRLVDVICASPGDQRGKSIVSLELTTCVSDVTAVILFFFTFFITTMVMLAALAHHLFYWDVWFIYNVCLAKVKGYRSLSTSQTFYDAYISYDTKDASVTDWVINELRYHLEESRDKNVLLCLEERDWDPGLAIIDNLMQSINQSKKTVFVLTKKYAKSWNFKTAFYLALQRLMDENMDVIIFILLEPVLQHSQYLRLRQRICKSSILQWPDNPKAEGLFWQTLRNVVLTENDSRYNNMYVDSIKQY
Briefly: TLR8 inhibition reporter assay (HEK-Blue cells, SEAP reporter). Particulars: HEK-Blue cells overexpressing human TLR8; stimulated with R848 15.9 μM; SEAP after 22 hour incubation. Here is the method: as §1, §2

On to `COc1ccc(-c2cc3ccc(-c4ccc(N5CCN(C(C)C)CC5)cc4)nc3n2C)cc1OC` [Example 7, 2-(3,4-Dimethoxyphenyl)-6-(4-(4-isopropylpiperazin-1-yl)phenyl)-1-methyl-1H-pyrrolo[2,3-b]pyridine], for which the IC50 (commonly the midpoint of a concentration-inhibition curve) in experiment [1] is 4.58 µM; in experiment [2], ≥ 50 µM; in experiment [3], ≥ 50 µM.
`CC(C)N1C[C@@H](C)N(c2ccc(-c3cnc4cc(-c5ccc(S(C)(=O)=O)cc5)n(C)c4c3)cc2)[C@@H](C)C1` [Example 33]: the IC50 in experiment [1] came to 0.383 µM; in experiment [2], 3.8 µM; in experiment [3] it was 4.2 µM.
On the same counts, the results for `CC(C)N1CCN(c2ccc(-c3cnc4cc(-c5ccc(S(C)(=O)=O)cc5)n(C)c4c3)cc2)C[C@H]1C` [Example 32] are 0.243 µM, 11.4 µM and 15.1 µM.
On the same counts, the results for `Cn1c(-c2ccc(S(C)(=O)=O)cc2)cc2ncc(-c3ccc(N4CCNCC4)cc3)cc21` [Example 20, 1-Methyl-2-(4-(methylsulfonyl)phenyl)-6-(4-(piperazin-1-yl)phenyl)-1H-pyrrolo[3,2-b]pyridine] are 0.171 µM, 2 µM and 2.4 µM.
On the same counts, the results for `CCN1CCN(Cc2ccc(-c3cnc4cc(-c5ccc(S(C)(=O)=O)cc5)n(C)c4c3)cc2)CC1` [Example 25] are 0.212 µM, > 50 µM and 43.8 µM.
With `Cn1c(-c2ccc(S(C)(=O)=O)cc2)cc2ncc(-c3ccc(CN4CCC(C)(O)CC4)cc3)cc21` [Example 22], the IC50 is 0.339 µM in experiment [1], 7.9 µM in experiment [2] and 14.6 µM in experiment [3].
On the same counts, the results for `COc1ccc(-c2cc3ncc(-c4ccc(N5CCN(C(C)C)CC5)cc4)cc3n2C)cc1C#N` [Example 39] are 0.101 µM, > 25 µM and > 25 µM.
With `CC(C)N1CCN(c2ccc(-c3cnc4cc(-c5ccc(S(C)(=O)=O)cc5)n(C)c4c3)cc2)C[C@@H]1C` [Example 29], the values for the IC50 in experiment [1], in experiment [2] and in experiment [3] were 0.722 µM, 3.3 µM and 2.3 µM, respectively.
Regarding `CC(C)CN1[C@@H]2CC[C@H]1CC(N1CCC(c3cnc4cc(-c5ccc(S(C)(=O)=O)cc5)n(C)c4c3)CC1)C2` (stereo partly drawn) [Example 36], the results for the IC50 in experiment [1], in experiment [2] and in experiment [3] were 0.022 µM, 10.5 µM and > 50 µM, respectively.
As to `CC(C)N1CCN(c2ccc(-c3cnc4cc(-c5cccc(S(=O)(=O)N(C)C)c5)n(C)c4c3)cc2)CC1` [Example 40], the IC50 in experiment [1] is 0.076 µM; in experiment [2] it was 8.1 µM; in experiment [3] it was 2.1 µM.
On the same counts, the results for `CC(C)N1[C@H](C)CN(c2ccc(-c3cnc4cc(-c5ccc(S(C)(=O)=O)cc5)n(C)c4c3)cc2)C[C@@H]1C` [Example 34] are 0.244 µM, > 50 µM and > 50 µM.
On the same counts, the results for `CC(C)N1CCN(c2ccc(-c3cnc4cc(-c5ccc(S(C)(=O)=O)cc5)n(C)c4c3)cc2)[C@@H](C)C1` [Example 30] are 0.576 µM, 4.8 µM and 5.3 µM.
On the same counts, the results for `CN(C)C1CCN(Cc2ccc(-c3cnc4cc(-c5ccc(S(C)(=O)=O)cc5)n(C)c4c3)cc2)CC1` [Example 24] are 0.014 µM, 4.9 µM and > 50 µM.
